Tests used:
Assay in all cases: biochemical
Parameters in all cases: Thermo Fisher in vitro kinase panel, per cent inhibition of kinase activity at 10 uM
MET (cMet) = MET (cMet) (Homo sapiens, UniProt P08581)
Protocol: (§1) Kinase profiling of SMER28 and analogs SMER28 and analogs were tested at 10 µM in a panel of 123 kinases at ThermoFisher Scientific. Follow-up of selected kinases for SMER28 and analogs was also performed at ThermoFisher Scientific. Data are shown in Supplementary Data 2 and 3. […] An inhibition of PIK3C could induce autophagy, mediated by signaling through the AKT/mTOR axis[45].

LYN A = biological target: T1, LYN A (Homo sapiens, UniProt P07948)
T1 construct: isoform A
Protocol: as §1

STK17A (DRAK1) = STK17A (DRAK1) (Homo sapiens, UniProt Q9UEE5)
Protocol: as §1

SYK = SYK (Homo sapiens, UniProt P43405)
Protocol: as §1

PDK1 = biological target: T2, PDK1 (Homo sapiens, UniProt O15530)
T2 construct: gene PDPK1
Protocol: as §1

ROCK2 = ROCK2 (Homo sapiens, UniProt O75116)
Protocol: as §1

CSNK1G1 (CK1 gamma 1) = CSNK1G1 (CK1 gamma 1) (Homo sapiens, UniProt Q9HCP0)
Protocol: as §1

PRKCE (PKC epsilon) = PRKCE (PKC epsilon) (Homo sapiens, UniProt Q02156)
Protocol: as §1

[1] = biological target: MAP3K7/MAP3K7IP1 (TAK1-TAB1) (Homo sapiens, UniProt O43318)
Sequence of MAP3K7/MAP3K7IP1 (TAK1-TAB1) (O43318 whole entry): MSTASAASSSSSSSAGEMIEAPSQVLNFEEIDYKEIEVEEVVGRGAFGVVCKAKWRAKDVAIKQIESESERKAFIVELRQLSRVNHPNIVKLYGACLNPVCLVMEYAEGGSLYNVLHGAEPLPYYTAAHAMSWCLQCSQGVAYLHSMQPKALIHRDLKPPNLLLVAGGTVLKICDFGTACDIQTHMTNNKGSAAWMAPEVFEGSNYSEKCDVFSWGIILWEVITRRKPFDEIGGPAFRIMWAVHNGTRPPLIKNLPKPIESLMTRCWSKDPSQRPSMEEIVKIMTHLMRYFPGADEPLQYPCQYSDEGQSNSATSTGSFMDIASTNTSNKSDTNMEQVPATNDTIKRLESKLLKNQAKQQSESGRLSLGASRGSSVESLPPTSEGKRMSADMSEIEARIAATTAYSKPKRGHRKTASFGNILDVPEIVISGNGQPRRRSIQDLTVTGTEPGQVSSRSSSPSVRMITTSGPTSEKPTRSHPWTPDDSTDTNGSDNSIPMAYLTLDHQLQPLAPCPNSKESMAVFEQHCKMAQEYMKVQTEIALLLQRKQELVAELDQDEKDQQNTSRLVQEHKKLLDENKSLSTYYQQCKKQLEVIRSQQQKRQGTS
Sequence of MAP3K7/MAP3K7IP1 (TAK1-TAB1) (Q15750 whole entry partner): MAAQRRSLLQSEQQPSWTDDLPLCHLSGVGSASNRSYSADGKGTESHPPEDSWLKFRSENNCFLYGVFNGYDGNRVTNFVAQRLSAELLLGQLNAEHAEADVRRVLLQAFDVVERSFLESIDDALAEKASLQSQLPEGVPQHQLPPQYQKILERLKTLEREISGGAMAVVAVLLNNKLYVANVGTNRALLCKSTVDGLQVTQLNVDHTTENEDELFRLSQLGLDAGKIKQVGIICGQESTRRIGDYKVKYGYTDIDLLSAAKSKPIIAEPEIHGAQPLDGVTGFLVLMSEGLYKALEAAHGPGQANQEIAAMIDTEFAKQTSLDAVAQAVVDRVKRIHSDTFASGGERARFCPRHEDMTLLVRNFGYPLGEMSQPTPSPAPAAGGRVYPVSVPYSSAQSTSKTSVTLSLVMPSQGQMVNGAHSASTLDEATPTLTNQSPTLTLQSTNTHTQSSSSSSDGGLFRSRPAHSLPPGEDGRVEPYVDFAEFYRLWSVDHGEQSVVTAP
Protocol: as §1

CSF1R (FMS) = CSF1R (FMS) (Homo sapiens, UniProt P07333)
Protocol: as §1

ALK = ALK (Homo sapiens, UniProt Q9UM73)
Protocol: as §1

PTK6 (Brk) = PTK6 (Brk) (Homo sapiens, UniProt Q13882)
Protocol: as §1

FLT1 (VEGFR1) = FLT1 (VEGFR1) (Homo sapiens, UniProt P17948)
Sequence of FLT1 (VEGFR1) (P17948 whole entry): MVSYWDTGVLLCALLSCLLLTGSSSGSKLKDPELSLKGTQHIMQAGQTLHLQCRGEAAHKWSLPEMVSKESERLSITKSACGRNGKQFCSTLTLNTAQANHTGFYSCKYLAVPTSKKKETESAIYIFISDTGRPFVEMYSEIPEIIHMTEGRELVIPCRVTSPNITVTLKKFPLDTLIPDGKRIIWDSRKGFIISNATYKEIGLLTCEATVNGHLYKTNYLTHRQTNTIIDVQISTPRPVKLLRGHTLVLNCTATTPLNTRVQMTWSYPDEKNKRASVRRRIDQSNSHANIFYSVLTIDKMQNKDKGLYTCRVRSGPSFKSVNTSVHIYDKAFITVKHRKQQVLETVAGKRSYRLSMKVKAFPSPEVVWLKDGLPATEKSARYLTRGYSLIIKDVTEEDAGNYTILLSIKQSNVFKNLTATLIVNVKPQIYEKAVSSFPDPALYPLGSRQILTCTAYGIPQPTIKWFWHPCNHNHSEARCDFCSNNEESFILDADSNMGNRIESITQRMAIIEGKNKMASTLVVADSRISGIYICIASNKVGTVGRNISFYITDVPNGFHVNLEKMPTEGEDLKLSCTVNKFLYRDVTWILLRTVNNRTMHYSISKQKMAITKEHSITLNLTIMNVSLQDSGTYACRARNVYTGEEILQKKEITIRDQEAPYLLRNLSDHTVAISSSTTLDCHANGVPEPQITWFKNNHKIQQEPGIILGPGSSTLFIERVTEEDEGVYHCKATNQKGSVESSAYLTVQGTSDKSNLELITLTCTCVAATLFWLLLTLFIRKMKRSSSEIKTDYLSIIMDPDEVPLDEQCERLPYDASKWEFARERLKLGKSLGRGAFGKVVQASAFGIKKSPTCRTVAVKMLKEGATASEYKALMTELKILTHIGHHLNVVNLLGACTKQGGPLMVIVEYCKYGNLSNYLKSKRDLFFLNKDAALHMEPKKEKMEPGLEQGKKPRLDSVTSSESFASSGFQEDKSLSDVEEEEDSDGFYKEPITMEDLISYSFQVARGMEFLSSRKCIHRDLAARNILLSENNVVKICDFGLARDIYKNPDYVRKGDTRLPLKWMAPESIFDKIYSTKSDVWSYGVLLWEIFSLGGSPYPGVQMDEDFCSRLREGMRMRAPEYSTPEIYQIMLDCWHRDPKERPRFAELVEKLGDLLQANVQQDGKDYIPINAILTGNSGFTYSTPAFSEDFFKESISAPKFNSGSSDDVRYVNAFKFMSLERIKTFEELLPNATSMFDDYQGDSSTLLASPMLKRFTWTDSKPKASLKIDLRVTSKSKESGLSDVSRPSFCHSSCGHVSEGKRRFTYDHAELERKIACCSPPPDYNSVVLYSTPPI
Protocol: as §1

FRAP1 (mTOR) = FRAP1 (mTOR) (Homo sapiens, UniProt P42345)
Protocol: as §1

CDK9/cyclin T1 = CDK9/cyclin T1 (Homo sapiens, UniProt P50750)
Protocol: as §1

FES (FPS) = FES (FPS) (Homo sapiens, UniProt P07332)
Protocol: as §1

MINK1 = MINK1 (Homo sapiens, UniProt Q8N4C8)
Protocol: as §1

DMPK = DMPK (Homo sapiens, UniProt Q09013)
Sequence of DMPK (Q09013 whole entry): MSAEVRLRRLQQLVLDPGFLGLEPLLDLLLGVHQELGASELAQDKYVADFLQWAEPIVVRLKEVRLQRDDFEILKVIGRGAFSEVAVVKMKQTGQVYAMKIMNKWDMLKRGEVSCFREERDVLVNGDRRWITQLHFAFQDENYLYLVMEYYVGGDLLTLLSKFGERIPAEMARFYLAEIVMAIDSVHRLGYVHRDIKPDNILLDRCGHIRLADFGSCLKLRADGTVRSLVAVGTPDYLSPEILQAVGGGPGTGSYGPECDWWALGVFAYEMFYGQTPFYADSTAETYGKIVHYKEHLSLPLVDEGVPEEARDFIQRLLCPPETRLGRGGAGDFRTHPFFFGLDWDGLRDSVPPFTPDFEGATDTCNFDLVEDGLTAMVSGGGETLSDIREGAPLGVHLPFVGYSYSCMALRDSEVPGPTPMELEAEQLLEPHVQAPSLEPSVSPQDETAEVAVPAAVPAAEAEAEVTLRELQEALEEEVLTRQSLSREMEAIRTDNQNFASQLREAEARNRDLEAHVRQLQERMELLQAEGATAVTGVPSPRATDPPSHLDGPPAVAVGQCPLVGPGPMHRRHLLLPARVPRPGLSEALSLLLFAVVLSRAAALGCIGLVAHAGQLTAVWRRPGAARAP
Protocol: as §1

TYRO3 (RSE) = TYRO3 (RSE) (Homo sapiens, UniProt Q06418)
Protocol: as §1

PAK2 (PAK65) = PAK2 (PAK65) (Homo sapiens, UniProt Q13177)
Protocol: as §1

TBK1 = TBK1 (Homo sapiens, UniProt Q9UHD2)
Protocol: as §1

TGFBR1 (ALK5) = TGFBR1 (ALK5) (Homo sapiens, UniProt P36897)
Sequence of TGFBR1 (ALK5) (P36897 whole entry): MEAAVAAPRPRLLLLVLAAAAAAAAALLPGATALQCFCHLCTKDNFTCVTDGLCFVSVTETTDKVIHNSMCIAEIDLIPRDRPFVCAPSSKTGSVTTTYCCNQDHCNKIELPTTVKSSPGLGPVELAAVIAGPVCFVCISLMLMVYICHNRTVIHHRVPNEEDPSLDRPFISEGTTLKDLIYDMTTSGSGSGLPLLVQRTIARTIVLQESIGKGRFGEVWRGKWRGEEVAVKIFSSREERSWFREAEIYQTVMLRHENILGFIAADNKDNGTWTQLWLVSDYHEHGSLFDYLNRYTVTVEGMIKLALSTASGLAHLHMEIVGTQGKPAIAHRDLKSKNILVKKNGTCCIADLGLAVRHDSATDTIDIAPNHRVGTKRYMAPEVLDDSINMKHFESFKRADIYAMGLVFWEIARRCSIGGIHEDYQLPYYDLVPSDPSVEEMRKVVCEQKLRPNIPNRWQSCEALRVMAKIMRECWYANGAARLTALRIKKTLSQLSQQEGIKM
Protocol: as §1

TNIK = TNIK (Homo sapiens, UniProt Q9UKE5)
Protocol: as §1

RAF1 (cRAF) Y340D Y341D = RAF1 (cRAF) Y340D Y341D (Homo sapiens, UniProt P04049, Y340D/Y341D)
Protocol: as §1

ROS1 = ROS1 (Homo sapiens, UniProt P08922)
Protocol: as §1

Sequence of MET (cMet) (P08581 whole entry): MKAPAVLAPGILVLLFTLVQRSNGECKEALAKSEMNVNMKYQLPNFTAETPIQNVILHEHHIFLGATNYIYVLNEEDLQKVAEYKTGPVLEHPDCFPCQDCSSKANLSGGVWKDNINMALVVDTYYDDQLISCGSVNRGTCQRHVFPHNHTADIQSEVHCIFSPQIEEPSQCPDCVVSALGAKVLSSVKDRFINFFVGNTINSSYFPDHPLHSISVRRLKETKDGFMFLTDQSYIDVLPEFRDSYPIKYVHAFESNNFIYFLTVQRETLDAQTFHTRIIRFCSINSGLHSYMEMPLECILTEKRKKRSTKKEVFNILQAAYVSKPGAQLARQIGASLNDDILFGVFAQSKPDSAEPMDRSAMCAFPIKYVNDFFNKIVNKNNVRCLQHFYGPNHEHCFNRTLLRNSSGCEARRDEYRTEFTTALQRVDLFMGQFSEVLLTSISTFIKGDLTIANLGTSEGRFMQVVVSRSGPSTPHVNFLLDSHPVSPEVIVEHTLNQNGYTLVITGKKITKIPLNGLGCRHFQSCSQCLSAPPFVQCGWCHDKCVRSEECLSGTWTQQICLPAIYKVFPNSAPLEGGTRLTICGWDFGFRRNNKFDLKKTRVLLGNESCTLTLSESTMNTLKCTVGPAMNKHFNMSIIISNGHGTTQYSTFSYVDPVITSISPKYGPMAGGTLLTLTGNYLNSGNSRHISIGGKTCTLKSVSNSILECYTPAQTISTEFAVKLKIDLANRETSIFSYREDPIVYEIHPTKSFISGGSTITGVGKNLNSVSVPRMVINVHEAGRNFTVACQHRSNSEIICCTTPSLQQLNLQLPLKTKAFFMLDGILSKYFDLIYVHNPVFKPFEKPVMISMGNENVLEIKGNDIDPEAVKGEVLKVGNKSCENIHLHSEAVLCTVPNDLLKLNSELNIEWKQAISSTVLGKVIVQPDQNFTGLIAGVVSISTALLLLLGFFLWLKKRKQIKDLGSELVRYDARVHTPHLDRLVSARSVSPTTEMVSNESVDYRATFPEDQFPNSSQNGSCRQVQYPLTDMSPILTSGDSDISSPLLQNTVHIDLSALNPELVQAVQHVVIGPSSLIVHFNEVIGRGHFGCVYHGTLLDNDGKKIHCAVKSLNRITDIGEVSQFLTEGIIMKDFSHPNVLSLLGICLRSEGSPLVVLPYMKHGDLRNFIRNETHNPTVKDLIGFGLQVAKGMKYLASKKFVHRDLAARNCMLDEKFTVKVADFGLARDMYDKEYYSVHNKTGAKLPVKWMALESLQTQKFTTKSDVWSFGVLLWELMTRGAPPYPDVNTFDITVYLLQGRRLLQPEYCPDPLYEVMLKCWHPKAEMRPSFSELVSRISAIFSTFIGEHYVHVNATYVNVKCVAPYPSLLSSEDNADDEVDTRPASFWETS

`C=CCNc1ncnc2ccc(Br)cc12` [SMER28] was tested, and the inhibition at 10 µM (MET (cMet)) was 8%, the inhibition at 10 µM (LYN A) was 20% and the inhibition at 10 µM (STK17A (DRAK1)) was 34%. The inhibition at 10 µM (SYK) was 8%, the inhibition at 10 µM (PDK1) was -7% and the inhibition at 10 µM (ROCK2) was -5%. The inhibition at 10 µM (CSNK1G1 (CK1 gamma 1)) was 31%, the inhibition at 10 µM (PRKCE (PKC epsilon)) was 18% and the inhibition at 10 µM [1] was 34%. The inhibition at 10 µM (CSF1R (FMS)) was 39%, the inhibition at 10 µM (ALK) was 25% and the inhibition at 10 µM (PTK6 (Brk)) was 0%. It also gave an inhibition at 10 µM (FLT1 (VEGFR1)) of 9%, an inhibition at 10 µM (FRAP1 (mTOR)) of -7% and an inhibition at 10 µM (CDK9/cyclin T1) of 40%. For the same compound, the inhibition at 10 µM (FES (FPS)) was 8%, the inhibition at 10 µM (MINK1) was 45% and the inhibition at 10 µM (DMPK) was 57%. For the same compound, the inhibition at 10 µM (TYRO3 (RSE)) was 11%, the inhibition at 10 µM (PAK2 (PAK65)) was 9% and the inhibition at 10 µM (TBK1) was 4%. The inhibition at 10 µM (TGFBR1 (ALK5)) was 6%, the inhibition at 10 µM (TNIK) was 38% and the inhibition at 10 µM (RAF1 (cRAF) Y340D Y341D) was 13%. For the same compound, the inhibition at 10 µM (ROS1) was 26%.

— PMC9288506, “Compounds activating VCP D1 ATPase enhance both autophagic and proteasomal neurotoxic protein clearance” (Nature Communications, 2022)
